According to ChEMBL document CHEMBL1135083, “A designed P1 cysteine mimetic for covalent and non-covalent inhibitors of HCV NS3 protease” (Bioorg Med Chem Lett, 2002):
Numbered stars: 1 amine (or outer) side, 2 acyl side, 3 side chain; on linkers, the order of the positions; unused ones are H or OH. Square brackets hold non-standard residues; d marks the D form. Peptide text beside a SMILES is read from it. * marks the point of attachment. Dip = N[C@H](C(=O)O)C(c1ccccc1)c1ccccc1; X4 = O=C(C(=O)[*:2])[C@H](CC(F)F)N[*:1]; X3 = O=C(c1nc2ccccc2s1)[C@H](CC(F)F)N*; X6 = O=C(c1nc2ccccc2o1)[C@H](CC(F)F)N*; Abu(4,4-F2) = N[C@@H](CC(F)F)C(=O)O; X5 = O=C([C@@H](CC(F)F)N[*:1])[*:2]; X1 = O=C(c1nccs1)[C@H](CC(F)F)N*; X2 = COC(=O)C(=O)[C@H](CC(F)F)N*; X7 = O=C(O)C(=O)[C@H](CC(F)F)N*; Cha = N[C@@H](CC1CCCCC1)C(=O)O; AllylGly = C=CC[C@H](N)C(=O)O; Abu = CC[C@H](N)C(=O)O; NHBn = c1ccc(CN*)cc1

These compounds were tested against Hepatitis C virus serine protease, NS3/NS4A (Hepatitis C virus, UniProt A3EZI9+D2K2A8) (assay: Inhibition of hepatitis C virus (HCV) NS3/NS4A serine protease).
Hepatitis C virus serine protease, NS3/NS4A, sequence (D2K2A8 whole entry): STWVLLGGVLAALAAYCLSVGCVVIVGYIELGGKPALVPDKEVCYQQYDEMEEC
Hepatitis C virus serine protease, NS3/NS4A, sequence (A3EZI9 whole entry): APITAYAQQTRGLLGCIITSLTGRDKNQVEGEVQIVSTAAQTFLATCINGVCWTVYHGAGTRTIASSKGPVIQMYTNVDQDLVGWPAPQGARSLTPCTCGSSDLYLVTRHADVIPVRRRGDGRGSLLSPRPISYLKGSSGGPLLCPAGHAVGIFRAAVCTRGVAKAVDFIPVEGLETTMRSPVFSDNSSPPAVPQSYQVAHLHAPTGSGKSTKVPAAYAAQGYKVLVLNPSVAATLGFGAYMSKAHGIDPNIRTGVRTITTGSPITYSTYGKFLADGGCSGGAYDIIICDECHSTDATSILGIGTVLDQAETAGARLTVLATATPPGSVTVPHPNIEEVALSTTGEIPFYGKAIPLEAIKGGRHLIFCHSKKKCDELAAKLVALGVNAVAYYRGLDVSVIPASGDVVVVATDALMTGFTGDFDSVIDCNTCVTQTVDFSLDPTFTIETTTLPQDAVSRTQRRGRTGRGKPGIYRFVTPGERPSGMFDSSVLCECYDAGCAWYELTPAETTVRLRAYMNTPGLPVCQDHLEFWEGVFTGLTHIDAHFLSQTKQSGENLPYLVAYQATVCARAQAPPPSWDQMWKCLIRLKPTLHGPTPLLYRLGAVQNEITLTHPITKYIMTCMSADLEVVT
Type: protein-complex assay, Hepacivirus hominis

| Structure (SMILES) | Ki [nM] |
| --- | --- |
| CC(=O)N[C@@H](CC(=O)O)C(=O)N[C@@H](CCC(=O)O)C(=O)N[C@H](C(=O)N[C@@H](CCC(=O)O)C(=O)N[C@@H](CC1CCCCC1)C(=O)N[C@@H](CC(F)F)C(=O)O)C(c1ccccc1)c1ccccc1 (Ac-DE[Dip]E[Cha][Abu(4,4-F2)]-OH) | 30 |
| C=CC[C@H](NC(=O)[C@H](CC1CCCCC1)NC(=O)[C@H](CCC(=O)O)NC(=O)[C@@H](NC(=O)[C@H](CCC(=O)O)NC(=O)[C@H](CC(=O)O)NC(C)=O)C(c1ccccc1)c1ccccc1)C(=O)O (Ac-DE[Dip]E[Cha][AllylGly]-OH) | 100 |
| CC(=O)N[C@@H](CC(=O)O)C(=O)N[C@@H](CCC(=O)O)C(=O)N[C@H](C(=O)N[C@@H](CCC(=O)O)C(=O)N[C@@H](CC1CCCCC1)C(=O)N[C@@H](CS)C(=O)O)C(c1ccccc1)c1ccccc1 (Ac-DE[Dip]E[Cha]C-OH) | 40 |
| CC(=O)N[C@@H](CC(=O)O)C(=O)N[C@@H](CCC(=O)O)C(=O)N[C@H](C(=O)N[C@@H](CCC(=O)O)C(=O)N[C@@H](CC1CCCCC1)C(=O)N[C@@H](CC(F)F)C(=O)c1nc2ccccc2s1)C(c1ccccc1)c1ccccc1 (Ac-DE[Dip]E[Cha]-X3) | 150 |
| C=CC[C@@H](C=O)NC(=O)[C@H](CC1CCCCC1)NC(=O)[C@H](CCC(=O)O)NC(=O)[C@@H](NC(=O)[C@H](CCC(=O)O)NC(=O)[C@H](CC(=O)O)NC(C)=O)C(c1ccccc1)c1ccccc1 (Ac-DE[Dip]E[Cha][AllylGly]-aldehyde) | 7 |
| CC(=O)N[C@@H](CC(=O)O)C(=O)N[C@@H](CCC(=O)O)C(=O)N[C@H](C(=O)N[C@@H](CCC(=O)O)C(=O)N[C@@H](CC1CCCCC1)C(=O)N[C@@H](CC(F)F)C(=O)C(=O)NCc1ccccc1)C(c1ccccc1)c1ccccc1 (Ac-DE[Dip]E[Cha][X4]-NHBn) | 1.5 |
| CC(=O)N[C@@H](CC(=O)O)C(=O)N[C@@H](CCC(=O)O)C(=O)N[C@H](C(=O)N[C@@H](CCC(=O)O)C(=O)N[C@@H](CC1CCCCC1)C(=O)N[C@H](CC(F)F)C(=O)O)C(c1ccccc1)c1ccccc1 (Ac-DE[Dip]E[Cha][X5]-OH) | 640 |
| CC(=O)N[C@@H](CC(=O)O)C(=O)N[C@@H](CCC(=O)O)C(=O)N[C@H](C(=O)N[C@@H](CCC(=O)O)C(=O)N[C@@H](CC1CCCCC1)C(=O)N[C@H](C=O)CC(F)F)C(c1ccccc1)c1ccccc1 (Ac-DE[Dip]E[Cha][Abu(4,4-F2)]-aldehyde) | 0.5 |
| COC(=O)C(=O)[C@H](CC(F)F)NC(=O)[C@H](CC1CCCCC1)NC(=O)[C@H](CCC(=O)O)NC(=O)[C@@H](NC(=O)[C@H](CCC(=O)O)NC(=O)[C@H](CC(=O)O)NC(C)=O)C(c1ccccc1)c1ccccc1 (Ac-DE[Dip]E[Cha]-X2) | 2 |
| CC(=O)N[C@@H](CC(=O)O)C(=O)N[C@@H](CCC(=O)O)C(=O)N[C@H](C(=O)N[C@@H](CCC(=O)O)C(=O)N[C@@H](CC1CCCCC1)C(=O)N[C@@H](CC(F)F)C(=O)c1nccs1)C(c1ccccc1)c1ccccc1 (Ac-DE[Dip]E[Cha]-X1) | 1500 |
| CC(=O)N[C@@H](CC(=O)O)C(=O)N[C@@H](CCC(=O)O)C(=O)N[C@H](C(=O)N[C@@H](CCC(=O)O)C(=O)N[C@@H](CC1CCCCC1)C(=O)N[C@@H](CC(F)F)C(=O)c1nc2ccccc2o1)C(c1ccccc1)c1ccccc1 (Ac-DE[Dip]E[Cha]-X6) | 600 |
| CC(=O)N[C@@H](CC(=O)O)C(=O)N[C@@H](CCC(=O)O)C(=O)N[C@H](C(=O)N[C@@H](CCC(=O)O)C(=O)N[C@@H](CC1CCCCC1)C(=O)N[C@@H](CC(F)F)C(=O)C(=O)O)C(c1ccccc1)c1ccccc1 (Ac-DE[Dip]E[Cha]-X7) | 0.01 |
| CC[C@H](NC(=O)[C@H](CC1CCCCC1)NC(=O)[C@H](CCC(=O)O)NC(=O)[C@@H](NC(=O)[C@H](CCC(=O)O)NC(=O)[C@H](CC(=O)O)NC(C)=O)C(c1ccccc1)c1ccccc1)C(=O)O (Ac-DE[Dip]E[Cha][Abu]-OH) | 700 |
